Results from US5688787A, “Substituted β-lactam compounds useful as hypochlesterolemic agents and processes for the preparation thereof” (priority 1996, dated 1997).
Where two headings read alike, the source gives them in different places.

Key:
ACAT = molecular target: T1, ACAT (Rattus norvegicus, UniProt Q7TQM4); assay: ACAT Assay (in vitro); assay type: biochemical; details: for inhibition at 10 µM: Conc. 10 µM, negative = apparent stimulation, read-out: ACAT (in vitro) % Inhib.; for IC50: rat liver microsomes, read-out: ACAT (in vitro) IC50
T1 construct: Rat liver microsomes are used as the source of ACAT; from tissue; host or cells: rat liver microsomes
T1 sequence (Q7TQM4 1-524): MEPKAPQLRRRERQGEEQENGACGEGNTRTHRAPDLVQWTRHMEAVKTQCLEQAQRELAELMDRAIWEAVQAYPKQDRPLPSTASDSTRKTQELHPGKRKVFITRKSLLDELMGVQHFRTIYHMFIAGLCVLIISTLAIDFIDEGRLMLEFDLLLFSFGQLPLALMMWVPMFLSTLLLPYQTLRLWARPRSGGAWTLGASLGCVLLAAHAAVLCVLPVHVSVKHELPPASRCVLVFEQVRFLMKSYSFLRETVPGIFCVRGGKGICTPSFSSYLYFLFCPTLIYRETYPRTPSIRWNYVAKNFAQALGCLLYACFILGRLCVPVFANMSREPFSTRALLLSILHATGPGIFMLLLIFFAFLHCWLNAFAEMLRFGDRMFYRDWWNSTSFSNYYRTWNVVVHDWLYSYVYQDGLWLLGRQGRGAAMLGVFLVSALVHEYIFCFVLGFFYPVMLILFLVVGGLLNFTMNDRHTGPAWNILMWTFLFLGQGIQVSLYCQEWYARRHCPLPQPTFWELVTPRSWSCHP

Hyperlipidemic Hamster = assay: In Vivo Assay of Hypolipidemic Agents Using the Hyperlipidemic Hamster; details: Mesocricetus auratus, po, 168 h, 7 days, percent change versus control, negative = lowering; for change in vivo at 50 mg/kg: 50 mg/kg once daily oral; for change in vivo at 25 mg/kg: 25 mg/kg once daily oral
Procedure, shortened: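 Hamsters, six per group, were fed chow with 0.5% cholesterol for seven days and given compound once daily by oral gavage in corn oil; controls received corn oil alone. Plasma (EDTA) and liver lipids were measured at sacrifice. Values are percent change versus control, so negative means lowering.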

[1] = read-out: % Reduction (in vivo) Cholest. Esters
[2] = read-out: % Reduction (in vivo) Serum Cholest.

SMILES	inhibition at 10 µM (ACAT)	IC50 (ACAT)	change in vivo at 50 mg/kg (Hyperlipidemic Hamster; [1])	change in vivo at 50 mg/kg (Hyperlipidemic Hamster; [2])	change in vivo at 25 mg/kg (Hyperlipidemic Hamster; [1])	change in vivo at 25 mg/kg (Hyperlipidemic Hamster; [2])
CCCCCCCCCC[C@@H]1C(=O)N(c2ccc(OC)cc2)[C@H]1c1ccccc1 (relative stereo) [Example 1T]	-11%		0%	0%		
COc1ccc(N2C(=O)[C@@](Cc3ccccc3)(c3ccccc3)[C@@H]2c2ccccc2)cc1 (relative stereo) [Example 1X]	9%		0%	-12%		
CC[C@@]1(c2ccccc2)C(=O)N(c2ccc(OC)cc2)[C@H]1c1ccccc1 (relative stereo) [Example 1Z]	-15%		-39%	-15%		
CC[C@@]1(CCCc2ccccc2)C(=O)N(c2ccc(OC)cc2)[C@H]1c1ccccc1 (relative stereo) [Example 3A]	33%		-29%	-12%		
COc1ccc(N2C(=O)[C@](CCCc3ccccc3)(c3ccccc3)[C@@H]2c2ccccc2)cc1 (relative stereo) [Example 3B]	84%		-16%	-11%		
CC[C@@]1(CCCc2ccccc2)C(=O)N(c2c(OC)cc(OC)cc2OC)[C@H]1c1ccccc1 (relative stereo) [Example 3D]	42%	12 µM	0%	0%		
CC[C@]1(CCCc2ccccc2)C(=O)N(c2ccc(OC)cc2)[C@H]1c1ccccc1 (relative stereo) [Example 3E]	-24%		0%	0%		
CC[C@]1(CCCc2ccccc2)C(=O)N(c2c(OC)cc(OC)cc2OC)[C@H]1c1ccccc1 (relative stereo) [Example 3F]	82%		-31%	0%		
CC[C@@]1(CCCc2ccccc2)C(=O)N(c2ccc(OC)cc2)[C@H]1C=Cc1ccccc1 (relative stereo) [Example 3G]	74%	5 µM	0%	9%		
CC[C@]1(CCc2ccccc2)C(=O)N(c2ccc(OC)cc2)[C@H]1c1ccccc1 (relative stereo) [Example 3H]	66%		31%	-10%		
COc1ccc(N2C(=O)[C@](C)(CCc3ccccc3)[C@@H]2c2ccccc2)cc1 (relative stereo) [Example 3I]	43%		0%	-9%		
COc1ccc(N2C(=O)[C@@](C)(CCCc3ccccc3)[C@@H]2c2ccccc2)cc1 (relative stereo) [Example 3J]	45%		-16%	0%		
COc1ccc(N2C(=O)[C@@](C)(CCCCc3ccccc3)[C@@H]2c2ccccc2)cc1 (relative stereo) [Example 3K]	19%		0%	0%		
CC[C@@]1(CCCCc2ccccc2)C(=O)N(c2ccc(OC)cc2)[C@H]1c1ccccc1 (relative stereo) [Example 3L]	53%				0%	0%
CC[C@]1(CCCc2ccccc2)C(=O)N(c2ccc(OC)cc2)[C@H]1c1ccc(OC)cc1 (relative stereo) [Example 3M]	13%		0%	0%		
CC[C@@]1(CCCc2ccccc2)C(=O)N(c2ccc(OC)cc2)[C@H]1c1ccc(OC)cc1 (relative stereo) [Example 3O]	-28%		0%	0%		
CCCCCCCCCC[C@]1(c2ccccc2)C(=O)N(c2ccc(OC)cc2)[C@H]1c1ccccc1 (relative stereo) [Example 3R]	-8%		0%	0%		
CCCCCCCCCC[C@]1(CCCc2ccccc2)C(=O)N(c2ccc(OC)cc2)[C@@H]1c1ccccc1 (relative stereo) [Example 3U]	46%		0%	0%		
CCCCCCCCCC[C@]1(CC)C(=O)N(c2c(OC)cc(OC)cc2OC)[C@@H]1c1ccccc1 (relative stereo) [Example 3V]	60%	6.5 µM	0%	0%		
CCCCCCCCCC[C@@]1(CC)C(=O)N(c2c(OC)cc(OC)cc2OC)[C@@H]1c1ccccc1 (relative stereo) [Example 3W]	56%		0%	0%		
CCCCCCCCCC[C@]1(C)C(=O)N(c2ccc(OC)cc2)[C@H]1c1ccccc1 (relative stereo) [Example 3Y]	-33%		0%	0%		
CC[C@@]1(CCCc2ccccc2)C(=O)N(c2ccc(OC)cc2)[C@@H]1/C=C/c1ccccc1 (relative stereo) [Example 3]	56%		0%	0%		
CC[C@@]1(CCCc2ccccc2)C(=O)N(c2ccc(OC)cc2)[C@H]1CCc1ccccc1 (relative stereo) [Example 6]	59%	5 µM	0%	14%		

More lines, main results first:

inhibition at 10 µM (ACAT)	IC50 (ACAT)	SMILES	change in vivo at 50 mg/kg (Hyperlipidemic Hamster; [1])	change in vivo at 50 mg/kg (Hyperlipidemic Hamster; [2])	change in vivo at 25 mg/kg (Hyperlipidemic Hamster; [1])	change in vivo at 25 mg/kg (Hyperlipidemic Hamster; [2])
30%		COc1ccc([C@@H]2[C@@H](CCCCc3ccccc3)C(=O)N2c2ccc(OC)cc2)cc1 (relative stereo) [Example 5AB]	-72%	-28%		
21%		COc1ccc(N2C(=O)[C@H](CCCc3ccccc3)[C@H]2c2cccc(OC)c2)cc1 (relative stereo) [Example 5C]	-24%	-17%		
-23%		COc1ccc([C@@H]2[C@@H](N(C)CCc3ccccc3)C(=O)N2c2ccccc2)cc1 (relative stereo) [Example 5N]	-55%	-17%		
53%		COc1ccc(N2C(=O)[C@H](CCCc3ccccc3)[C@H]2c2ccc(OC)c(OC)c2)cc1 (relative stereo) [Example 5P]	-33%	-11%		
-36%		COc1ccc(N2C(=O)[C@H](CCCc3ccccc3)[C@H]2c2ccc3c(c2)OCO3)cc1 (relative stereo) [Example 5Q]	-19%	0%		
18%		COc1ccc(N2C(=O)[C@H](CCCc3ccccc3)[C@H]2c2ccc(C)cc2)cc1 (relative stereo) [Example 5R]	-21%	-20%		
28%		CCOc1ccc([C@@H]2[C@@H](CCCc3ccccc3)C(=O)N2c2ccc(OC)cc2)cc1 (relative stereo) [Example 5S]	-98%	-52%		
38%		COc1ccc([C@@H]2[C@@H](CCOc3ccccc3)C(=O)N2c2ccc(OC)cc2)cc1 (relative stereo) [Example 5X]	-39%	0%		
-22%		COc1ccc([C@@H]2N(c3ccc(OC)cc3)C(=O)[C@@]2(c2ccccc2)C2CCCC2)cc1 (relative stereo) [Example 7AD]	-12%	-12%		
-95%		COc1ccc([C@@H]2[C@H](OCCc3ccccc3)C(=O)N2c2ccc(OC)cc2)cc1 (relative stereo) [Example 7AE]	-10%	-17%		
53%		COc1ccc([C@@H]2N(c3ccc(OC)cc3)C(=O)[C@]2(Cc2ccccc2)c2ccccc2)cc1 (relative stereo) [Example 7AF]	-15%	23%		
-5%		COc1ccc([C@@H]2N(c3ccc(OC)cc3)C(=O)[C@@]2(Cc2ccccc2)c2ccccc2)cc1 (relative stereo) [Example 7AH]	16%	16%		
-17%		CC[C@@H]1C(=O)N(c2ccc(OC)cc2)[C@H]1c1ccc(N)cc1 (relative stereo) [Example 8A]	0%	0%		
-5%		COc1ccc(N2C(=O)[C@@H](CCCc3ccccc3)[C@H]2c2ccc(N)cc2)cc1 (relative stereo) [Example 8B]	-35%	-9%		
